Source: patent publication US20250353891A1 (MEDIMMUNE LIMITED, priority 2022, published 2025)
Each block holds one compound with its values, some of them ahead of it. Starred links: 1 amine or outer side, 2 acyl side, 3 side chain; linkers in the order of their positions; H or OH if unused. Non-standard residues stand in square brackets, D forms with d. Residues, ends and D or L forms follow the SMILES beside them. Groups on a side chain read outwards from the residue. *: point of attachment. C20 diacid = O=C(O)CCCCCCCCCCCCCCCCCCC(=O)*; X2 = CC(C)(CC(N)=O)[C@H](N[*:1])C(=O)[*:2]; C18 diacid = O=C(O)CCCCCCCCCCCCCCCCC(=O)*; γGlu = O=C(O)[C@H](CCC(=O)[*:2])N[*:1]; X3 = O=C(CN(Cc1c[nH]cn1)[*:1])[*:2]; αMeF = C[C@](N)(Cc1ccccc1)C(=O)O; AEEA = NCCOCCOCC(=O)O; Aib = CC(C)(N)C(=O)O

Biological target: human GLP-1 receptor (hGLP-1R) (Homo sapiens, UniProt P43220)
Sequence (P43220 24-463): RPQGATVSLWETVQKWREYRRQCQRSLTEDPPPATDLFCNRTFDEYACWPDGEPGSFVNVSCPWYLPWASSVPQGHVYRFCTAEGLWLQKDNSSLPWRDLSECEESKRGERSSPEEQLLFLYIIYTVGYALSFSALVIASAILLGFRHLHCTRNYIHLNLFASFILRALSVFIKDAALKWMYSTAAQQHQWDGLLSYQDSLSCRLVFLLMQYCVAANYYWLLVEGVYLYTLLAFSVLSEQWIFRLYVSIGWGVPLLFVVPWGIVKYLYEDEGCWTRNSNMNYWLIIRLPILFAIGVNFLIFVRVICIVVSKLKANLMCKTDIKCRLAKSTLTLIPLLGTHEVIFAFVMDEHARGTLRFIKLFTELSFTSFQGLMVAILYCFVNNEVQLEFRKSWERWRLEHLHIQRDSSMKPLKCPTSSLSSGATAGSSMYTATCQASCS
Assay: cAMP production (HTRF) in CHO cells expressing hGLP-1R
Format: cell-based
Design: expressed in transfected cells
Conditions: for % Relative Potency Ratio: % GLP-1R activity relative to GLP-1 / % GlucR activity relative to glucagon
Procedure: Cells were re-suspended in assay buffer at a batch-dependent optimized concentration (typically hGLP-1R cells at 1×10^5 cells/mL, hGCGR cells at 2×10^5 cells/mL).
Cells were added to the assay plate using a multidrop dispenser and incubated at room temperature for 30 minutes before measuring the cAMP level using a cAMP dynamic 2 homogeneous time resolved Fluorescence (HTRF) kit (Cisbio Bioassays #62AM4PEJ) following the two-step protocol as per manufacturer's recommendations. In brief, anti-cAMP cryptate (donor fluorophore) and cAMP-d2 (acceptor fluorophore) were made up separately by diluting each 1 in 20 in conjugate and lysis buffer provided in the kit. Anti-CAMP cryptate was added to all wells of the assay plate, followed by cAMP-d2 added to all wells except non-specific binding (NSB) wells (to which conjugate and lysis buffer was added).
Data was transformed to % Delta F as described in the manufacturer's guidelines and analyzed by 4-parameter logistic fit to determine EC50 values.

% Relative Potency Ratio (Table 7): 0.4
SMILES: CC[C@H](C)[C@H](NC(=O)[C@H](Cc1c[nH]c2ccccc12)NC(=O)[C@H](C)NC(=O)[C@@H](NC(=O)[C@](C)(Cc1ccccc1)NC(=O)[C@H](CC(=O)O)NC(=O)[C@H](CCCCNC(=O)COCCOCCNC(=O)COCCOCCNC(=O)CC[C@H](NC(=O)CCCCCCCCCCCCCCCCC(=O)O)C(=O)O)NC(=O)[C@H](C)NC(=O)[C@H](C)NC(=O)[C@H](CCCNC(=N)N)NC(=O)[C@H](CO)NC(=O)[C@H](CC(=O)O)NC(=O)[C@H](CC(C)C)NC(=O)[C@](C)(Cc1ccccc1)NC(=O)[C@H](CCCCN)NC(=O)[C@H](CO)NC(=O)[C@@H](NC(=O)[C@H](CC(=O)O)NC(=O)[C@H](CO)NC(=O)[C@@H](NC(=O)[C@](C)(Cc1ccccc1)NC(=O)[C@H](CO)NC(=O)CNC(=O)[C@H](Cc1c[nH]cn1)NC(=O)C(C)(C)NC(=O)[C@@H](N)Cc1c[nH]cn1)[C@@H](C)O)C(C)C)[C@@H](C)CC)C(=O)N[C@@H](C)C(=O)N[C@@H](CC(N)=O)C(=O)N[C@H](C(N)=O)[C@@H](C)O [Peptide 230] (H-H[Aib]HGS[αMeF]TSDVSK[αMeF]LDSRAAK([AEEA-AEEA-γGlu-C18 diacid])D[αMeF]IAWIANT-NH2)

% Relative Potency Ratio (Table 7): 2.9
SMILES: CC[C@H](C)[C@H](NC(=O)C(C)(C)NC(=O)[C@H](CCC(N)=O)NC(=O)[C@@H](NC(=O)[C@](C)(Cc1ccccc1)NC(=O)[C@H](CC(=O)O)NC(=O)[C@H](CCCCNC(=O)COCCOCCNC(=O)COCCOCCNC(=O)CC[C@H](NC(=O)CCCCCCCCCCCCCCCCC(=O)O)C(=O)O)NC(=O)[C@H](C)NC(=O)[C@H](C)NC(=O)[C@H](CCCNC(=N)N)NC(=O)[C@H](CO)NC(=O)[C@H](CC(=O)O)NC(=O)[C@H](CC(C)C)NC(=O)[C@](C)(Cc1ccccc1)NC(=O)[C@H](CCCCN)NC(=O)[C@H](CO)NC(=O)[C@@H](NC(=O)[C@H](CC(=O)O)NC(=O)[C@H](CO)NC(=O)[C@@H](NC(=O)[C@](C)(Cc1ccccc1)NC(=O)[C@H](CO)NC(=O)CNC(=O)[C@@H](NC(=O)[C@H](CO)NC(=O)[C@@H](N)Cc1c[nH]cn1)C(C)(C)CC(N)=O)[C@@H](C)O)C(C)C)C(C)C)C(=O)N[C@@H](C)C(=O)N[C@@H](CC(N)=O)C(=O)N[C@H](C(N)=O)[C@@H](C)O [Peptide 324] (H-HS[X2]GS[αMeF]TSDVSK[αMeF]LDSRAAK([AEEA-AEEA-γGlu-C18 diacid])D[αMeF]VQ[Aib]IANT-NH2; N-terminus assumed)

SMILES: CC[C@H](C)[C@H](NC(=O)[C@H](Cc1c[nH]c2ccccc12)NC(=O)[C@H](CCCCNC(=O)CC[C@H](NC(=O)CC[C@H](NC(=O)CCOCCOCCNC(=O)CC[C@H](NC(=O)CC[C@H](NC(=O)CCCCCCCCCCCCCCCCCCC(=O)O)C(=O)O)C(=O)O)C(=O)O)C(=O)O)NC(=O)[C@@H](NC(=O)[C@H](Cc1ccccc1)NC(=O)[C@H](CC(=O)O)NC(=O)[C@H](CCC(N)=O)NC(=O)[C@H](C)NC(=O)[C@H](C)NC(=O)[C@H](CCC(N)=O)NC(=O)[C@H](CO)NC(=O)[C@H](CC(=O)O)NC(=O)[C@H](CC(C)C)NC(=O)[C@](C)(Cc1ccccc1)NC(=O)[C@H](CCCCN)NC(=O)[C@H](CO)NC(=O)[C@@H](NC(=O)[C@H](CC(=O)O)NC(=O)[C@H](CO)NC(=O)[C@@H](NC(=O)[C@](C)(Cc1ccccc1)NC(=O)[C@H](CO)NC(=O)CNC(=O)[C@H](Cc1c[nH]cn1)NC(=O)C(C)(C)NC(=O)[C@@H](N)Cc1c[nH]cn1)[C@@H](C)O)C(C)C)C(C)C)C(=O)N[C@@H](C)C(=O)N[C@@H](CC(N)=O)C(=O)N[C@H](C(N)=O)[C@@H](C)O [Peptide 357]
% Relative Potency Ratio: 1.2

% Relative Potency Ratio: 33.9
SMILES: CC[C@H](C)[C@H](NC(=O)[C@H](Cc1c[nH]c2ccccc12)NC(=O)[C@H](CCCCNC(=O)COCCOCCNC(=O)COCCOCCNC(=O)CC[C@H](NC(=O)CC[C@H](NC(=O)CCCCCCCCCCCCCCCCCCC(=O)O)C(=O)O)C(=O)O)NC(=O)[C@@H](NC(=O)[C@H](Cc1ccccc1)NC(=O)[C@H](CC(=O)O)NC(=O)[C@H](CCC(N)=O)NC(=O)[C@H](C)NC(=O)[C@H](C)NC(=O)[C@H](CCCNC(=N)N)NC(=O)[C@H](CO)NC(=O)[C@H](CC(=O)O)NC(=O)[C@H](CC(C)C)NC(=O)[C@](C)(Cc1ccccc1)NC(=O)[C@H](CCCCN)NC(=O)[C@H](CO)NC(=O)[C@@H](NC(=O)[C@H](CC(=O)O)NC(=O)[C@H](CO)NC(=O)[C@@H](NC(=O)[C@](C)(Cc1ccccc1)NC(=O)[C@H](CO)NC(=O)CNC(=O)[C@H](Cc1c[nH]cn1)NC(=O)[C@H](CO)NC(=O)CNCc1c[nH]cn1)[C@@H](C)O)C(C)C)C(C)C)C(=O)N[C@@H](C)C(=O)N[C@@H](CC(N)=O)C(=O)N[C@H](C(N)=O)[C@@H](C)O [Peptide 380] (H-[X3]SHGS[αMeF]TSDVSK[αMeF]LDSRAAQDFVK([AEEA-AEEA-γGlu-γGlu-C20 diacid])WIANT-NH2)

% Relative Potency Ratio: 9.3
SMILES: CCCCCCCCCCCCCCCCCC(=O)N[C@@H](CCC(=O)N[C@@H](CCC(=O)NCCOCCOCCC(=O)NCCOCCOCCC(=O)NCCCC[C@H](NC(=O)[C@H](CC(=O)O)NC(=O)[C@H](CO)NC(=O)[C@@H](NC(=O)[C@](C)(Cc1ccccc1)NC(=O)[C@H](CO)NC(=O)CNC(=O)[C@H](CCC(N)=O)NC(=O)[C@H](CO)NC(=O)[C@@H](N)Cc1c[nH]cn1)[C@@H](C)O)C(=O)N[C@@H](CO)C(=O)N[C@@H](CCCCN)C(=O)N[C@H](C(=O)N[C@@H](CC(C)C)C(=O)N[C@@H](CC(=O)O)C(=O)N[C@@H](CO)C(=O)N[C@H](C(=O)N[C@@H](C)C(=O)N[C@@H](C)C(=O)N[C@@H](CCC(N)=O)C(=O)N[C@@H](CC(=O)O)C(=O)N[C@@](C)(Cc1ccccc1)C(=O)N[C@H](C(=O)N[C@@H](CCC(=O)O)C(=O)NC(C)(C)C(=O)N[C@@H](CC(C)C)C(=O)N[C@@H](C)C(=O)N[C@@H](CC(N)=O)C(=O)N[C@H](C(N)=O)[C@@H](C)O)C(C)C)C(C)(C)CCNC(=N)N)C(c1ccccc1)c1ccccc1)C(=O)O)C(=O)O [Peptide 393, HSQGS(αMePhe)TSDK((PEG)2-(PEG)2-γE-yE-Stearoyl)10SK(Dip)LDS(β-dimethylArg)AAQD(αMePhe)VE(Aib)LANT-amide]

% Relative Potency Ratio (Table 6): 4.4
SMILES: CC(C)C[C@H](NC(=O)[C@H](Cc1c[nH]c2ccccc12)NC(=O)[C@H](CCCNC(=N)N)NC(=O)[C@@H](NC(=O)[C@H](Cc1ccccc1)NC(=O)[C@H](CC(=O)O)NC(=O)[C@H](CCC(N)=O)NC(=O)[C@H](C)NC(=O)[C@H](CCCNC(=N)N)NC(=O)[C@H](CCCCNC(=O)COCCOCCNC(=O)COCCOCCNC(=O)CC[C@H](NC(=O)CCCCCCCCCCCCCCCCCCC(=O)O)C(=O)O)NC(=O)[C@@H](NC(=O)[C@H](CC(=O)O)NC(=O)[C@H](CC(C)C)NC(=O)[C@](C)(Cc1ccccc1)NC(=O)[C@H](CCCCN)NC(=O)[C@H](CO)NC(=O)[C@@H](NC(=O)[C@H](CC(=O)O)NC(=O)[C@H](CO)NC(=O)[C@@H](NC(=O)[C@H](Cc1ccccc1)NC(=O)[C@@H](NC(=O)CNC(=O)[C@H](CCC(N)=O)NC(=O)C(C)(C)NC(=O)[C@@H](N)Cc1c[nH]cn1)[C@@H](C)O)[C@@H](C)O)C(C)C)[C@@H](C)O)C(C)C)C(=O)N[C@@H](CCC(=O)O)C(=O)N[C@@H](C)C(=O)NC(C)(C)C(=O)NCC(=O)O [Peptide 407]

SMILES: CC(C)C[C@H](NC(=O)[C@H](Cc1c[nH]c2ccccc12)NC(=O)[C@H](CCC(N)=O)NC(=O)[C@@H](NC(=O)[C@H](Cc1ccccc1)NC(=O)[C@H](CC(=O)O)NC(=O)[C@H](CCCNC(=N)N)NC(=O)[C@H](C)NC(=O)[C@H](CCCNC(=N)N)NC(=O)[C@H](CCCCNC(=O)COCCOCCNC(=O)COCCOCCNC(=O)CC[C@H](NC(=O)CCCCCCCCCCCCCCCCCCC(=O)O)C(=O)O)NC(=O)[C@@H](NC(=O)[C@H](CCC(=O)O)NC(=O)[C@H](CC(C)C)NC(=O)[C@](C)(Cc1ccccc1)NC(=O)[C@H](CCCCN)NC(=O)[C@H](CO)NC(=O)[C@@H](NC(=O)[C@H](CC(=O)O)NC(=O)[C@H](CO)NC(=O)[C@@H](NC(=O)[C@H](Cc1ccccc1)NC(=O)[C@@H](NC(=O)CNC(=O)[C@H](CCC(N)=O)NC(=O)C(C)(C)NC(=O)[C@@H](N)Cc1c[nH]cn1)[C@@H](C)O)[C@@H](C)O)C(C)C)[C@@H](C)O)C(C)C)C(=O)N[C@@H](CC(C)C)C(=O)N[C@@H](CCC(=O)O)C(=O)NC(C)(C)C(=O)NCC(=O)O [Peptide 444]
% Relative Potency Ratio (Table 6): 14.1

EC50 (Table 6, peptides modified at position 17, cAMP in CHO hGLP-1R cells, geometric mean, read-out: hGLP-1R EC50): 167 pM
SMILES: CC(C)C[C@H](NC(=O)[C@H](CC(C)C)NC(=O)[C@H](Cc1c[nH]c2ccccc12)NC(=O)[C@H](CCCNC(=N)N)NC(=O)[C@@H](NC(=O)[C@H](Cc1ccccc1)NC(=O)[C@H](CC(=O)O)NC(=O)[C@H](CCC(N)=O)NC(=O)[C@H](C)NC(=O)[C@H](CCCNC(=N)N)NC(=O)[C@H](CCCCNC(=O)COCCOCCNC(=O)COCCOCCNC(=O)CC[C@H](NC(=O)CCCCCCCCCCCCCCCCC(=O)O)C(=O)O)NC(=O)[C@H](CCCNC(=N)N)NC(=O)[C@H](CC(=O)O)NC(=O)[C@H](CC(C)C)NC(=O)[C@](C)(Cc1ccccc1)NC(=O)[C@H](CCCCN)NC(=O)[C@H](CO)NC(=O)[C@@H](NC(=O)[C@H](CC(=O)O)NC(=O)[C@H](CO)NC(=O)[C@@H](NC(=O)[C@H](Cc1ccccc1)NC(=O)[C@@H](NC(=O)CNC(=O)[C@H](CCC(N)=O)NC(=O)C(C)(C)NC(=O)[C@@H](N)Cc1c[nH]cn1)[C@@H](C)O)[C@@H](C)O)C(C)C)C(C)C)C(=O)N[C@@H](C)C(=O)N[C@@H](CCC(=O)O)C(N)=O [Peptide 461] (H-H[Aib]QGTFTSDVSK[αMeF]LDRK([AEEA-AEEA-γGlu-C18 diacid])RAQDFVRWLLAE-NH2; N-terminus assumed)
